Assay results from patent US12655116B2, “Substituted isophthalic acid diamides” (Bayer Aktiengesellschaft, priority 2020, dated 2026).

Key:
ABUTH [1] = assay: Pre-emergence herbicidal action against ABUTH; assay type: in vivo, Abutilon theophrasti
Summary of the method: (§1)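 Herbicidal effect was assessed 3 weeks after treatment by visual comparison with untreated controls, 100% denoting dead plants. Aqueous WP or EC preparations had been applied at 600 to 800 l/ha with 0.2% wetting agent to the soil covering freshly sown seeds.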

ALOMY [2] = assay: Pre-emergence herbicidal action against ALOMY; assay type: in vivo, Alopecurus myosuroides; settings: 80 g/ha, pre-emergence, scored visually after 3 weeks vs untreated controls (100% = plants have died, 0% = like control plants)
Summary of the method: as §1

AMARE [3] = assay: Pre-emergence herbicidal action against AMARE; assay type: in vivo, Amaranthus retroflexus
Summary of the method: as §1

AVEFA = assay: Pre-emergence herbicidal action against AVEFA; assay type: in vivo, Avena fatua; settings: 80 g/ha, pre-emergence
Summary of the method: as §1

ECHCG [4] = assay: Pre-emergence herbicidal action against ECHCG; assay type: in vivo, Echinochloa crus-galli
Summary of the method: as §1

HORMU = assay: Pre-emergence herbicidal action against HORMU; assay type: in vivo, Hordeum murinum; settings: 80 g/ha, pre-emergence
From the text: Seeds of monocotyledonous and dicotyledonous weed plants and crop plants are laid out in sandy loam soil in wood-fiber pots and covered with soil. The compounds of the invention, formulated in the form of wettable powders (WP) or as emulsion concentrates (EC), are then applied to the surface of the covering soil in the form of an aqueous suspension or emulsion at a water application rate equivalent to 600 to 800 l/ha, with addition of 0.2% wetting agent. After the treatment, the pots are placed in a greenhouse and kept under good growth conditions for the trial plants. The damage to the test plants is scored visually after a test period of 3 weeks by comparison with untreated controls (herbicidal activity in percent (%): 100% activity=the plants have died, 0% activity=like control plants). […] The tables below illustrate, in an illustrative manner, the post-emergence herbicidal action of the compounds of the invention, the herbicidal activity being stated in percent.

MATIN [5] = assay: Pre-emergence herbicidal action against MATIN; assay type: in vivo, Matricaria inodora
Summary of the method: as §1

SETVI [6] = assay: Pre-emergence herbicidal action against SETVI; assay type: in vivo, Setaria viridis
Summary of the method: as §1

STEME [7] = assay: Pre-emergence herbicidal action against STEME; assay type: in vivo, Stellaria media
Summary of the method: as §1

VIOTR [8] = assay: Pre-emergence herbicidal action against VIOTR; assay type: in vivo, Viola tricolor; settings: dosage 80 g/ha
Summary of the method: as §1

DIGSA [9] = assay: Pre-emergence herbicidal action against DIGSA; assay type: in vivo, Digitaria sanguinalis; settings: dosage 80 g/ha
Summary of the method: as §1

ABUTH [10] = assay: Post-emergence herbicidal action against ABUTH; assay type: in vivo, Abutilon theophrasti; settings: visual assessment about 3 weeks after treatment vs untreated controls
Summary of the method: (§2)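 Herbicidal effect was scored visually in percent after about 3 weeks in the greenhouse. Plants had been raised in sandy loam and treated post-emergence at the one-leaf stage with formulated compound at 600 to 800 l/ha water plus 0.2% wetting agent.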

ALOMY [11] = assay: Post-emergence herbicidal action against ALOMY; assay type: in vivo, Alopecurus myosuroides; settings: dosage 20 g/ha, visual assessment about 3 weeks after treatment vs untreated controls
Summary of the method: as §2

AMARE [12] = assay: Post-emergence herbicidal action against AMARE; assay type: in vivo, Amaranthus retroflexus; settings: 20 g/ha, visual assessment about 3 weeks after treatment, 100% = plants have died, 0% = like control plants
Summary of the method: as §2

ECHCG [13] = assay: Post-emergence herbicidal action against ECHCG; assay type: in vivo, Echinochloa crus-galli; settings: dosage 20 g/ha
Summary of the method: as §2

MATIN [14] = assay: Post-emergence herbicidal action against MATIN; assay type: in vivo, Matricaria inodora; settings: dosage 20 g/ha
Summary of the method: as §2

SETVI [15] = assay: Post-emergence herbicidal action against SETVI; assay type: in vivo, Setaria viridis
Summary of the method: as §2

STEME [16] = assay: Post-emergence herbicidal action against STEME; assay type: in vivo, Stellaria media
Summary of the method: as §2

VIOTR [17] = assay: Post-emergence herbicidal action against VIOTR; assay type: in vivo, Viola tricolor; settings: 20 g/ha
Summary of the method: as §2

DIGSA [18] = assay: Post-emergence herbicidal action against DIGSA; assay type: in vivo, Digitaria sanguinalis; settings: 20 g/ha
Summary of the method: as §2

[19] = 80 g/ha, scored visually after 3 weeks vs untreated controls (100% = plants have died, 0% = like control plants)

With Cc1nnc(NC(=O)c2ccc(C(F)F)c(C(=O)NC3CC3)c2Cl)o1 [Example 6-124] as the compound, how does the “Pre-emergence action against ABUTH (herbicidal activity)” value (ABUTH [1]; [19]) read?
The value was 100%.

And the “Pre-emergence action against ABUTH (herbicidal activity in percent)” value (ABUTH [1]; dosage 20 g/ha, scored visually after 3 weeks vs untreated controls, 100% = plants have died, 0% = like control plants)?
The value was 100%.

What about the “Pre-emergence action against ALOMY (herbicidal activity)” value (ALOMY [2]) of the same compound?
The value was 90%.

And the “Pre-emergence action against AMARE in %” value (AMARE [3]; 20 g/ha, scored visually after 3 weeks vs untreated controls, 100% = plants have died, 0% = like control plants)?
The value was 100%.

What about the “Pre-emergence action against AMARE in %” value (AMARE [3]; [19]) of the same compound?
Its value is 100%.

What about the “Pre-emergence action against AVEFA in %” value (AVEFA) of the same compound?
Its value is 90%.

And the “Pre-emergence action against ECHCG in %” value (ECHCG [4]; 20 g/ha)?
Its value is 80%.

What about the “Pre-emergence action against ECHCG in %” value (ECHCG [4]; 80 g/ha) of the same compound?
The value was 100%.

And the “Pre-emergence action against HORMU in %” value (HORMU)?
Its value is 80%.

What about the “Pre-emergence action against MATIN in %” value (MATIN [5]; dosage 20 g/ha) of the same compound?
The value was 90%.

And the “Pre-emergence action against MATIN in %” value (MATIN [5]; dosage 80 g/ha)?
Its value is 100%.

What about the “Pre-emergence action against SETVI in %” value (SETVI [6]; dosage 20 g/ha) of the same compound?
The value was 80%.

What about the “Pre-emergence action against SETVI in %” value (SETVI [6]; dosage 80 g/ha) of the same compound?
The value was 100%.

And the “Pre-emergence action against STEME in %” value (STEME [7]; dosage 20 g/ha)?
Its value is 80%.

What about the “Pre-emergence action against STEME in %” value (STEME [7]; dosage 80 g/ha) of the same compound?
The value was 90%.

What about the “Pre-emergence action against VIOTR in %” value (VIOTR [8]) of the same compound?
Its value is 100%.

What about the “Pre-emergence action against DIGSA in %” value (DIGSA [9]) of the same compound?
The value was 100%.

What about the “Post-emergence action against ABUTH in %” value (ABUTH [10]; dosage 5 g/ha) of the same compound?
Its value is 80%.

And the “Post-emergence action against ABUTH in %” value (ABUTH [10]; dosage 20 g/ha)?
Its value is 80%.

What about the “Post-emergence action against ALOMY in %” value (ALOMY [11]) of the same compound?
The value was 90%.

And the “Post-emergence action at 20 g/ha against AMARE in %” value (AMARE [12])?
Its value is 100%.

What about the “Post-emergence action against ECHCG in %” value (ECHCG [13]) of the same compound?
Its value is 80%.

What about the “Post-emergence action against MATIN in %” value (MATIN [14]) of the same compound?
The value was 80%.

And the “Post-emergence action against SETVI in %” value (SETVI [15]; dosage 5 g/ha)?
The value was 80%.

What about the “Post-emergence action against SETVI in %” value (SETVI [15]; dosage 20 g/ha) of the same compound?
The value was 90%.

And the “Post-emergence action against STEME in %” value (STEME [16]; 20 g/ha)?
The value was 90%.

And the “Post-emergence action against STEME in %” value (STEME [16]; dosage 5 g/ha)?
The value was 90%.

What about the “Post-emergence action against VIOTR in %” value (VIOTR [17]) of the same compound?
Its value is 100%.

What about the “Post-emergence action against DIGSA” value (DIGSA [18]) of the same compound?
Its value is 90%.
